According to patent publication EP1366764A1, “Method of screening for calcium receptor-active molecules” (The Brigham & Women's Hospital, Inc., priority 1993, dated 1994):

Experiments:
human parathyroid cells [1] = test: Measurement of [Ca2+]i (fura-2) in human parathyroid cells; assay type: cell-based; conditions: 20 µM
rMTC 6-23 cells = test: Measurement of cytosolic Ca2+ in C-cells (fura-2); assay type: cell-based, rat
rat osteoclasts = test: Measurement of [Ca2+]i in single rat osteoclasts (indo-1); assay type: cell-based
Ca^2+ receptor [2] = biological target: T1, Ca^2+ receptor (Homo sapiens, UniProt P41180); test: Cl- current in Xenopus oocytes injected with human parathyroid cell mRNA; assay type: cell-based
T1 construct: Oocytes were injected with poly(A)^+-enriched mRNA from human parathyroid tissue; expressed in transfected cells; host or cells: Xenopus laevis oocytes injected with poly(A)+ mRNA from human hyperplastic parathyroid glands (secondary HPT)
T1 sequence (P41180 20-1078): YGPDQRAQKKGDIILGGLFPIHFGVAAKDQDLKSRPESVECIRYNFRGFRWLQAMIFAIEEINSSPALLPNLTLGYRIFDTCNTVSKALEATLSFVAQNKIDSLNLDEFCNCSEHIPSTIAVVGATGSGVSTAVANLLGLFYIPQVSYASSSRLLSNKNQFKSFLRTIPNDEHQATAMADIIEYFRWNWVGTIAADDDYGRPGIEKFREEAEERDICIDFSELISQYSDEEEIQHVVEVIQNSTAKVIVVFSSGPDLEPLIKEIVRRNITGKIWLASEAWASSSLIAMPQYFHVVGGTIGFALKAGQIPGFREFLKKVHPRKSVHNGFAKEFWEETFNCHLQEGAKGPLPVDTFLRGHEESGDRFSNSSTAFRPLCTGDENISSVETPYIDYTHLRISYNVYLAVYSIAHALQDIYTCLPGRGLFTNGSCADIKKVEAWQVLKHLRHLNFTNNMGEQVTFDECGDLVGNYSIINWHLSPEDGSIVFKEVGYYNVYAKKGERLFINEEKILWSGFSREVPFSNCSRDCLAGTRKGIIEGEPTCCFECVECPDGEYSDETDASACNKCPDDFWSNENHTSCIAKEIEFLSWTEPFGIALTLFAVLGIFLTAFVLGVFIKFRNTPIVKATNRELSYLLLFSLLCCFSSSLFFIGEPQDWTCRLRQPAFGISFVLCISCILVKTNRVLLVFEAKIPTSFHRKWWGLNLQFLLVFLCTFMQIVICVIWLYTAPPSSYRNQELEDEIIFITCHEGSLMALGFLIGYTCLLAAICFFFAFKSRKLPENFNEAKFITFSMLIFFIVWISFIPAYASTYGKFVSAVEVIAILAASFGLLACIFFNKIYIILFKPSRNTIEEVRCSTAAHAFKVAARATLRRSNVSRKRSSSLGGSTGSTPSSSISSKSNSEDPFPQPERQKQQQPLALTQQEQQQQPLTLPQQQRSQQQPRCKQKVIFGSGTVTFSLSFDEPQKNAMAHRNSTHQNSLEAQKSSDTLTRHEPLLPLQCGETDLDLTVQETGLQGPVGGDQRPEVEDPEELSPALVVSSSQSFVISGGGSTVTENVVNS

Ca^2+ receptor [3] = biological target: T2, Ca^2+ receptor (Bos taurus, UniProt P35384); test: 45Ca2+ release from Xenopus oocytes injected with bovine parathyroid mRNA; assay type: cell-based; conditions: 10 mM for 20 min; compared to mock challenge with buffer
T2 construct: oocytes were injected with bovine parathyroid mRNA or water; expressed in transfected cells; host or cells: Xenopus laevis oocytes injected with poly(A)+ mRNA from bovine (calf) parathyroid glands
T2 sequence (P35384 20-1085): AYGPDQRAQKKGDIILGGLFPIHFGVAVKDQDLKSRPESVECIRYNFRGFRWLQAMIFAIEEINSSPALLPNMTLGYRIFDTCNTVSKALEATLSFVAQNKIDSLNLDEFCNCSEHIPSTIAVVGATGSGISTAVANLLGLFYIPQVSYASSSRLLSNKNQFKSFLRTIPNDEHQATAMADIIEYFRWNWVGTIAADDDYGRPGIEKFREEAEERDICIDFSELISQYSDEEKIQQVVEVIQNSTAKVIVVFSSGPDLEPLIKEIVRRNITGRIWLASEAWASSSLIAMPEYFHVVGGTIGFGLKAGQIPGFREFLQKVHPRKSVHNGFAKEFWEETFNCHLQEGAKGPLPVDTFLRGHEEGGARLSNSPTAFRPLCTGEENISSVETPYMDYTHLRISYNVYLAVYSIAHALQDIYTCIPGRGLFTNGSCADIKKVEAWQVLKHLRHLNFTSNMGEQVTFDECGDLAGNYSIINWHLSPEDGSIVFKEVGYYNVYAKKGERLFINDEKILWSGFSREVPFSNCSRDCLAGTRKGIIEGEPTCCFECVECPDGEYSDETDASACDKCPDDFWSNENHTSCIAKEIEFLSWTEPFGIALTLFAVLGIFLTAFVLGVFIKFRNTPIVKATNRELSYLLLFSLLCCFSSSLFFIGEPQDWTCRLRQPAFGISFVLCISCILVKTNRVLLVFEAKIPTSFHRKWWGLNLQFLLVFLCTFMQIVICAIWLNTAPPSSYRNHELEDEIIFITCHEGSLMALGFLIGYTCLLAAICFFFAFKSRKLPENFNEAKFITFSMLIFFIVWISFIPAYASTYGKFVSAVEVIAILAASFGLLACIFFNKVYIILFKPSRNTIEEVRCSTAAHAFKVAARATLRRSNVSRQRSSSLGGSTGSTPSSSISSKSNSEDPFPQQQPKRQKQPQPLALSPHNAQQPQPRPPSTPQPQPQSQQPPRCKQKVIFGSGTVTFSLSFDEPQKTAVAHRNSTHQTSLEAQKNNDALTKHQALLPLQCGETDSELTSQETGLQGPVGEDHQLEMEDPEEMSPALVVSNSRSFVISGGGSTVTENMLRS
From the text: Prior to being stimulated, oocytes were loaded with ^45Ca^2+.

[4] = biological target: T3, bovine parathyroid Ca^2+-receptor (Bos taurus, UniProt P35384); test: Cl- current in Xenopus oocytes expressing the cloned receptor (BoPCaR 1); assay type: cell-based
T3 construct: expressed in transfected cells; host or cells: Xenopus laevis oocytes injected with cRNA from the BoPCaR 1 cDNA (plasmid pSPORT1, ATCC 75416)
T3 sequence (P35384 20-1085): T2 sequence (P35384 20-1085)
From the text: An expression cloning strategy using Xenopus laevis oocytes was used to identify the cDNA encoding the bovine parathyroid calcium receptor. These techniques are described only briefly here, and a more complete description preceded this one in the sections describing techniques which may be used to clone additional forms of the Ca^2+-receptor from other cell types. Poly(A^+)-enriched RNA was initially prepared from bovine parathyroid glands using extraction with guanidinium thiocyanate, centrifugation through CsCl and oligo(dT) cellulose chromatography. […] No such currents were elicited in control eggs injected with water. […] The mRNA was then subjected to size fractionation, utilizing preparative, continuous flow agarose gel electrophoresis (Hediger, M.A., Anal. Biochem. 159:280-286 (1986)) to obtain fractions of poly(A^+)-RNA further enriched in transcripts coding for the Ca^2+-receptor. […] A plasmid containing the BoPCaR 1 […] (See plasmid, Figure 45; restriction map, Figure 46; and partial nucleotide sequence, Figure 47) has been deposited in the ATCC under deposit number ATCC 75416.
Several pharmacological and biochemical criteria were used to identify this clone as encoding a bona fide bovine parathyroid Ca^2+-receptor. […] These responses increased markedly over a period of one (1) to four (4) days after injection of the eggs with cRNA prepared from the BoPCaR 1 cDNA. […]

human parathyroid cells [5] = test: Measurement of PTH secretion from human parathyroid cells (radioimmunoassay); assay type: cell-based; conditions: human (adenoma) parathyroid cells; at concentrations that caused the mobilization of intracellular Ca2+
Procedure: Cells were suspended in PCB containing 0.5 mM CaCl2 and 0.1% BSA.
For human cells, a commercially available radioimmunoassay kit (INS-PTH; Nichols Institute, Los Angeles, CA) which recognizes intact and N-terminal human PTH was used because GW-1 antibody recognizes human PTH poorly.

[6] = Net positive charge of the molecule; assay type: physicochemical; conditions: at physiological pH (pH 7.3)
[7] = polymers of 1000 amino acids; cited from earlier work

Compound | increase in [Ca^2+]i (human parathyroid cells [1]) | EC50 (C-CELL) (rMTC 6-23 cells; rMTC 6-23 cells, fura-2, "inactive" = no increase in cytosolic Ca2+ at 1 mM or 1-5 mM (footnote)) | effect on basal [Ca^2+]i (rMTC 6-23 cells; spermine 10 mM, neomycin B 5 mM) | effect on the response to subsequent extracellular Ca^2+ (rat osteoclasts; neomycin 10 mM (25 mM extracellular Ca2+), spermine 20 mM, verapamil 100 µM) | increases in [Ca^2+]i in rat osteoclasts (rat osteoclasts; neomycin 10 mM, spermine 10 or 20 mM) | increase in [Ca^2+]i in osteoclasts (rat osteoclasts; neomycin B 1 mM, spermine 1 or 5 mM) | EC50 (OSTEOCLAST) (rat osteoclasts; rat osteoclasts, indo-1, "inactive" = no increase in cytosolic Ca2+ at 1 mM or 1-5 mM (footnote)) | change in current in water-injected oocytes (Ca^2+ receptor [2]; 10 mM, five water-injected oocytes (specificity control)) | concentrations at which oscillatory increases in the Cl^- current were observed (Ca^2+ receptor [2]; 3 days after injection of human (hyperplastic) parathyroid poly(A)+ mRNA) | concentration causing the mobilization of intracellular Ca^2+ in oocytes (Ca^2+ receptor [2]; oocytes injected with mRNA from human parathyroid cells) | increase in ^45Ca^2+ release (Ca^2+ receptor [3]) | concentrations producing changes in Cl^- current [4] | inhibition of PTH secretion (human parathyroid cells [5]) | Net (+) Charge [6] | Kd [7]
NC[C@@H]1O[C@H](O[C@H]2[C@@H](O)[C@H](O[C@@H]3[C@@H](O)[C@H](N)C[C@H](N)[C@H]3O[C@H]3O[C@H](CN)[C@@H](O)[C@H](O)[C@H]3N)O[C@@H]2CO)[C@H](N)[C@@H](O)[C@@H]1O [neomycin B] | […] | […] | without effect | […] | […] | […] | […] | failed to cause any change in the current | […] | […] | 76% | […] | inhibited PTH secretion from human parathyroid cells | […] | 
polylysine |  |  |  |  |  |  |  |  |  |  |  |  |  |  | 0.5 nM
